Assay results: ChEMBL document CHEMBL1201862, “PubChem BioAssay data set” (2004)
The source made the active and inactive calls.

How the values were obtained:
[1] = target: T1, Glutathione-S-transferase (Schistosoma japonicum, UniProt Q26513); assay: biotin-GST/anti-GST TR-FRET signal inhibitors, dose response, artefact control for Vif-APOBEC3G degradation inhibitor project, biochemical (AID 1117362); type: functional
T1 sequence (Q26513 whole entry): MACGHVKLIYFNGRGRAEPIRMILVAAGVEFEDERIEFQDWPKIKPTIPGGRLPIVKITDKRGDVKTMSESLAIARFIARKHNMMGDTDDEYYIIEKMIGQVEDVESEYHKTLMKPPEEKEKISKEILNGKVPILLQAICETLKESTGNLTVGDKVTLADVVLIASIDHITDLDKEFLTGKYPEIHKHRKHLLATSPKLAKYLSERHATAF

[2] = target: Peroxisome proliferator-activated receptor gamma/Nuclear receptor coactivator 1 (Homo sapiens, UniProt P37231); assay: (§1) TR-FRET dose response biochemical High Throughput Screening assay for agonists of the steroid receptor coactivator 1 (SRC-1) recruitment by the peroxisome proliferator-activated receptor gamma (PPAR gamma): non-selective agonists. [Related pubchem assays (depositor defined):AID1300, AID1808, AID504735, AID631]; type: protein assay
[3] = target: Peroxisome proliferator-activated receptor gamma/Nuclear receptor coactivator 3 (Homo sapiens, UniProt P37231); assay: as §1, with “3 (SRC-3)” for “1 (SRC-1)”, “assays: 1301 (Confirmation screen.), 1048 (Primary screen.)]” for “assays (depositor defined):AID1300, AID1808, AID504735, AID631]”; type: functional
[4] = target: Peroxisome proliferator-activated receptor gamma/Nuclear receptor coactivator 2 (Homo sapiens, UniProt P37231); assay: TR-FRET dose response biochemical High Throughput Screening assay for agonists of the steroid receptor coactivator 2 (SRC-2) recruitment by the peroxisome proliferator-activated receptor gamma (PPAR gamma): non-selective agonists. [Related pubchem assays: 1297, 1032 ]; type: functional
[5] = target: Alkaline phosphatase, placental type (Homo sapiens, UniProt P05187); assay: PLAP enzyme inhibitors, confirmation, biochemical, luminescence (AID 1512); type: functional
[6] = target: T2, Alkaline phosphatase, tissue-nonspecific isozyme (Homo sapiens, UniProt P05186); assay: human TNAP enzyme inhibitors, SAR follow-up, biochemical, luminescent, dose response (AID 1056)
T2 sequence (P05186 whole entry): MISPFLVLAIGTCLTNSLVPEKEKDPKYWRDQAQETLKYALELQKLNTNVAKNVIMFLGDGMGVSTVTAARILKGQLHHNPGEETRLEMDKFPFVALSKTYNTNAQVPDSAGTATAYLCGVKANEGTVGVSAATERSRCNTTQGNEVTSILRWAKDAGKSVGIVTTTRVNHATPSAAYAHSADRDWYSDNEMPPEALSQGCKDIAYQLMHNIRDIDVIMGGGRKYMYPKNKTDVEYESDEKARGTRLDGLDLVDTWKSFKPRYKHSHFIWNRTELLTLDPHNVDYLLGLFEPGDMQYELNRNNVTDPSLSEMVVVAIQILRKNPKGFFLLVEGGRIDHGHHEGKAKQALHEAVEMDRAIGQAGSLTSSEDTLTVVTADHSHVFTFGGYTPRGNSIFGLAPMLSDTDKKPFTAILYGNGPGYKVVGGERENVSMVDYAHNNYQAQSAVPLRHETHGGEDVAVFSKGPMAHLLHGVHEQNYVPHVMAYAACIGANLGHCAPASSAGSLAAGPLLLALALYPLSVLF

[7] = tested on: Streptococcus; assay: Group A Streptococcus viability loss, dose response, counter-screen for streptokinase expression inhibitor project, luminescence, BacTiterGlo (AID 1915); type: functional, organism-based;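 also: potency for reduction of bacterial viability or growth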
[8] = target: T3, Delta-type opioid receptor (Homo sapiens, UniProt P41143); assay: HTS Image-Based Screen for Agonists of the DOR Receptor. [Related pubchem assays (depositor defined):AID1777, AID1786, AID2133]; type: functional
[9] = target: Mu-type opioid receptor (Homo sapiens, UniProt P35372); assay: HTS Image-Based Screen for Agonists of the MOR Receptor. [Related pubchem assays (depositor defined):AID1777, AID1785, AID1786, AID2133]; type: functional;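 also: imaging of beta-arrestin GFP recruitment into spots after receptor activation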
[10] = target: T4, Kappa-type opioid receptor (Homo sapiens, UniProt P41145); type: functional
[11] = target: T3, Delta-type opioid receptor; assay: HTS Image-Based Screen for Antagonists of the DOR Receptor. [Related pubchem assays (depositor defined):AID1777, AID1785, AID1786, AID2133]; type: functional
[12] = target: T5, Streptokinase A (Streptococcus pyogenes serotype M1, UniProt P10520); assay: S. pyogenes streptokinase expression inhibitors, potency, dose response, plasminogen activation absorbance, OD405 (AID 1914); type: functional, Streptococcus pyogenes M1 GAS;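 also: secreted streptokinase activity via plasminogen activation per viability signal from cell pellet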
T5 sequence (P10520 whole entry): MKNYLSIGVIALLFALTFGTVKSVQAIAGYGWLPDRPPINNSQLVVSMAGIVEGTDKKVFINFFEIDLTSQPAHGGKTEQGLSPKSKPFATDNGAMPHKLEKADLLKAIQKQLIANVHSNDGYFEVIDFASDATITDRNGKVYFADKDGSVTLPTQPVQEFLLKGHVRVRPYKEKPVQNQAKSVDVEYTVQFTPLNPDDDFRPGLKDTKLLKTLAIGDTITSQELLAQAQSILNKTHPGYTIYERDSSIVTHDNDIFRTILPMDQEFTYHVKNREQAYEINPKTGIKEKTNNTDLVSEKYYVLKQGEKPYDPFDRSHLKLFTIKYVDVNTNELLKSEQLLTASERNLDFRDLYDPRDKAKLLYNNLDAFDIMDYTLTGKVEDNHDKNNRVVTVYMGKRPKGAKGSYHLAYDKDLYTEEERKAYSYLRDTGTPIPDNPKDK

[13] = target: T4, Kappa-type opioid receptor; type: functional; remark: listed apart in the source
[14] = tested on: Streptococcus sp. 'group A'; assay: growth inhibition of control SK(-) GAS strain, dose response, counter-screen for streptokinase expression inhibitor project, luminescence, kanamycin, BacTiterGlo, confirmation (AID 1900); type: functional, organism-based
[15] = target: Beta-galactosidase (Escherichia coli, UniProt Q8VNN2); type: functional
[16] = target: T6, Type-1 angiotensin II receptor (Homo sapiens, UniProt P30556); assay: AT1 receptor agonists, dose response, selectivity assay for APJ receptor agonist project, cell-based, uHTS hits (AID 488865); type: functional;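 also: beta-arrestin recruitment to AT1 measured by enzyme fragment complementation luminescence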
T6 sequence (P30556 whole entry): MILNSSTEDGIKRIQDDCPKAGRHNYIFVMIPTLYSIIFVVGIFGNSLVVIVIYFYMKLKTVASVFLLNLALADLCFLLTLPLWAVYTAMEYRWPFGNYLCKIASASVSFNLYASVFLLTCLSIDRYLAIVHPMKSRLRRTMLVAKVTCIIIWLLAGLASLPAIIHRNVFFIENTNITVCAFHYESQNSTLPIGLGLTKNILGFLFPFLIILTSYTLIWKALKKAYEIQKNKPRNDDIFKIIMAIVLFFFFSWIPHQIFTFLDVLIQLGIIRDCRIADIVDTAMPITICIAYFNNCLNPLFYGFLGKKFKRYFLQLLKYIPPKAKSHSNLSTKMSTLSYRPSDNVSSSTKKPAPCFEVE

[17] = target: T7, Short transient receptor potential channel 4 (Mus musculus, UniProt Q9QUQ5); assay: mouse TRPC4 channel activators, dose response, cell-based, HEK293 TRPC4/mu-opioid, Fluo-4 calcium (AID 434937); type: functional
T7 sequence (Q9QUQ5 whole entry): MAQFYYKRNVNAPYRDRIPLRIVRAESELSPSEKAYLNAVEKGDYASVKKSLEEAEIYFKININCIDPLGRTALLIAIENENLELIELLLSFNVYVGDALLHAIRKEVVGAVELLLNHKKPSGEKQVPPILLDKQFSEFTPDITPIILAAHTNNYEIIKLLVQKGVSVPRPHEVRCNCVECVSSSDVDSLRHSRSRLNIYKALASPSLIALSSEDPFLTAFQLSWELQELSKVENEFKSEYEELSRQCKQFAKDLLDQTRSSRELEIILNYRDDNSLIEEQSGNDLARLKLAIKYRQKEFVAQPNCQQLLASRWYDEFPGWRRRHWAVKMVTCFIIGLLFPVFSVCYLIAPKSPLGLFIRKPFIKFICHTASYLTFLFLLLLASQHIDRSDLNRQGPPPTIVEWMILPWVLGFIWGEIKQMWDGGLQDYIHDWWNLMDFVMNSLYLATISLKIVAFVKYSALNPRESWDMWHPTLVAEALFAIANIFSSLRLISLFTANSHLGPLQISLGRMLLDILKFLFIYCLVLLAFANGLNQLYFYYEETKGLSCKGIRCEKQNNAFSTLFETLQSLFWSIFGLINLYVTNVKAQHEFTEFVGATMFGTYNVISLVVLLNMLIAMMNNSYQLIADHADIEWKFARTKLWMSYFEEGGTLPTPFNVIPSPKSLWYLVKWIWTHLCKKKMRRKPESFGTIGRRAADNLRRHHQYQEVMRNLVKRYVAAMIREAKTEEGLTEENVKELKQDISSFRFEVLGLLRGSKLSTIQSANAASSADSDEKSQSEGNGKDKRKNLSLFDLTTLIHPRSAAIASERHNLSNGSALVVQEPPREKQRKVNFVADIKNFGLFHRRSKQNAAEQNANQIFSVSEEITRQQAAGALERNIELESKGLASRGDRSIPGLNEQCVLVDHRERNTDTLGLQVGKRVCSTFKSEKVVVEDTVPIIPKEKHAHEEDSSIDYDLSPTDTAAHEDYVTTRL

Chain of Alkaline phosphatase, placental type (P05187 whole entry): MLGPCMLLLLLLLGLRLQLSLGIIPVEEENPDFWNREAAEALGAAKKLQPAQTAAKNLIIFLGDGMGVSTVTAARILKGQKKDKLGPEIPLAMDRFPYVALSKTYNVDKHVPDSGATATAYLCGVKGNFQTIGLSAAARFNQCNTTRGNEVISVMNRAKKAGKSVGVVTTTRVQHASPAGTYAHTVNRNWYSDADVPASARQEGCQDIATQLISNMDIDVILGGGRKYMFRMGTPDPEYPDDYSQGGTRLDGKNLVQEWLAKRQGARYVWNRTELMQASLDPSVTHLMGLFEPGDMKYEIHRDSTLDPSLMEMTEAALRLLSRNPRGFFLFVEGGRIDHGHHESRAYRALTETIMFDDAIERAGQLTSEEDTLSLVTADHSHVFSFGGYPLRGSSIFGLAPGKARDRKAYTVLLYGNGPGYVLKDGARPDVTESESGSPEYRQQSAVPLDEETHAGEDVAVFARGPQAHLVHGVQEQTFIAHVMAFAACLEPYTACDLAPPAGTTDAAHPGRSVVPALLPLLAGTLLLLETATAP
Chain of Peroxisome proliferator-activated receptor gamma/Nuclear receptor coactivator 2 (P37231 whole entry): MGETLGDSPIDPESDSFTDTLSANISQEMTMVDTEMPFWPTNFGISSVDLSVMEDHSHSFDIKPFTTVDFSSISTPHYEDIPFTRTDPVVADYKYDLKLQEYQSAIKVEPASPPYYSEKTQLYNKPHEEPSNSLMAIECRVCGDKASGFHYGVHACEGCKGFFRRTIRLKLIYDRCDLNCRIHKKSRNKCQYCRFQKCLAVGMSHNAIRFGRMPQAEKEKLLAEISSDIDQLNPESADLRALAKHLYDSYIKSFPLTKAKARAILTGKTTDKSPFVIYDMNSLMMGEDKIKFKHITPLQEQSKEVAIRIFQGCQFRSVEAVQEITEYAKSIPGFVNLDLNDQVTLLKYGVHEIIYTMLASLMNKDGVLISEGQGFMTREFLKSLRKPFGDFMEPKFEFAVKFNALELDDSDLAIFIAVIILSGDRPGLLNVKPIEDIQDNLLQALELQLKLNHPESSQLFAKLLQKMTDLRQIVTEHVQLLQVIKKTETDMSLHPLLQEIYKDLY
Chain of Peroxisome proliferator-activated receptor gamma/Nuclear receptor coactivator 2 (Q15596 whole entry, further chain): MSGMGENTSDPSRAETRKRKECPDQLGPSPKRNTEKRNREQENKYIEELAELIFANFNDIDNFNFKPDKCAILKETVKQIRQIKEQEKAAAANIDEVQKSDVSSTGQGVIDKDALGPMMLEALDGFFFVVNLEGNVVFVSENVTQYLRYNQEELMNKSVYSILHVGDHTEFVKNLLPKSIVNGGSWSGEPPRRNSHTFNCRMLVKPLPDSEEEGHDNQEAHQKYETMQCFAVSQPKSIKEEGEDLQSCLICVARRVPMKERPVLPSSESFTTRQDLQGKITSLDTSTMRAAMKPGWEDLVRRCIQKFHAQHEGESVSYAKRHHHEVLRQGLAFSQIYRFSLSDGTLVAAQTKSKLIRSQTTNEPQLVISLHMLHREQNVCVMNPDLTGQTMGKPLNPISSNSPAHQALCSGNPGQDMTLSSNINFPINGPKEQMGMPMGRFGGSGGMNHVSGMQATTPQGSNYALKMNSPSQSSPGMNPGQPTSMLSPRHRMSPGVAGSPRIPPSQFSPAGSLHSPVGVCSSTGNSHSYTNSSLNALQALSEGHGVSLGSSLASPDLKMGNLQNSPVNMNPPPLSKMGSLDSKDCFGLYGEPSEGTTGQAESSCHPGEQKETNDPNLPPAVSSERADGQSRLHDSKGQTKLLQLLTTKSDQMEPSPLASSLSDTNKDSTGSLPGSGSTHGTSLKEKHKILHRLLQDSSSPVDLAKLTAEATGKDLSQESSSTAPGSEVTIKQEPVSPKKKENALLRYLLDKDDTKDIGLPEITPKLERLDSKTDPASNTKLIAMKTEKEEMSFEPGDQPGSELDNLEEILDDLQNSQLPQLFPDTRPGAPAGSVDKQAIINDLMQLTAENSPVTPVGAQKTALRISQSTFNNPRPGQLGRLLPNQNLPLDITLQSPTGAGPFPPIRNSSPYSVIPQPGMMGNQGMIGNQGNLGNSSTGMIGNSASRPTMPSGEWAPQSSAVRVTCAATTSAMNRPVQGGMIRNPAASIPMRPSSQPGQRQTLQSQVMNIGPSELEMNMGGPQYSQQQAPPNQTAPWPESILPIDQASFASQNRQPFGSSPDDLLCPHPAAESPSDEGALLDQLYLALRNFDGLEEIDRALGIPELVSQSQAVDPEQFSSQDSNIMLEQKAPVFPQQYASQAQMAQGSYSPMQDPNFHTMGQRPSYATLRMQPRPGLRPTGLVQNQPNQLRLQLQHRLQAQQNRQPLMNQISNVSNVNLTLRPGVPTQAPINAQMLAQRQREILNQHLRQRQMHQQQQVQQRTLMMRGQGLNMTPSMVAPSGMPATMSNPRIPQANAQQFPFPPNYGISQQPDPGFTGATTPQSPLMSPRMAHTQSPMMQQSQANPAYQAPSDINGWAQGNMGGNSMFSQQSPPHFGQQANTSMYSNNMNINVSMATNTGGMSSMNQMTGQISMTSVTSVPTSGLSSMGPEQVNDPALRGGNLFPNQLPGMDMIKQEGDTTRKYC
Chain of Peroxisome proliferator-activated receptor gamma/Nuclear receptor coactivator 3 (P37231 whole entry): as the sequence (P37231 whole entry) above
Chain of Peroxisome proliferator-activated receptor gamma/Nuclear receptor coactivator 3 (Q9Y6Q9 whole entry, further chain): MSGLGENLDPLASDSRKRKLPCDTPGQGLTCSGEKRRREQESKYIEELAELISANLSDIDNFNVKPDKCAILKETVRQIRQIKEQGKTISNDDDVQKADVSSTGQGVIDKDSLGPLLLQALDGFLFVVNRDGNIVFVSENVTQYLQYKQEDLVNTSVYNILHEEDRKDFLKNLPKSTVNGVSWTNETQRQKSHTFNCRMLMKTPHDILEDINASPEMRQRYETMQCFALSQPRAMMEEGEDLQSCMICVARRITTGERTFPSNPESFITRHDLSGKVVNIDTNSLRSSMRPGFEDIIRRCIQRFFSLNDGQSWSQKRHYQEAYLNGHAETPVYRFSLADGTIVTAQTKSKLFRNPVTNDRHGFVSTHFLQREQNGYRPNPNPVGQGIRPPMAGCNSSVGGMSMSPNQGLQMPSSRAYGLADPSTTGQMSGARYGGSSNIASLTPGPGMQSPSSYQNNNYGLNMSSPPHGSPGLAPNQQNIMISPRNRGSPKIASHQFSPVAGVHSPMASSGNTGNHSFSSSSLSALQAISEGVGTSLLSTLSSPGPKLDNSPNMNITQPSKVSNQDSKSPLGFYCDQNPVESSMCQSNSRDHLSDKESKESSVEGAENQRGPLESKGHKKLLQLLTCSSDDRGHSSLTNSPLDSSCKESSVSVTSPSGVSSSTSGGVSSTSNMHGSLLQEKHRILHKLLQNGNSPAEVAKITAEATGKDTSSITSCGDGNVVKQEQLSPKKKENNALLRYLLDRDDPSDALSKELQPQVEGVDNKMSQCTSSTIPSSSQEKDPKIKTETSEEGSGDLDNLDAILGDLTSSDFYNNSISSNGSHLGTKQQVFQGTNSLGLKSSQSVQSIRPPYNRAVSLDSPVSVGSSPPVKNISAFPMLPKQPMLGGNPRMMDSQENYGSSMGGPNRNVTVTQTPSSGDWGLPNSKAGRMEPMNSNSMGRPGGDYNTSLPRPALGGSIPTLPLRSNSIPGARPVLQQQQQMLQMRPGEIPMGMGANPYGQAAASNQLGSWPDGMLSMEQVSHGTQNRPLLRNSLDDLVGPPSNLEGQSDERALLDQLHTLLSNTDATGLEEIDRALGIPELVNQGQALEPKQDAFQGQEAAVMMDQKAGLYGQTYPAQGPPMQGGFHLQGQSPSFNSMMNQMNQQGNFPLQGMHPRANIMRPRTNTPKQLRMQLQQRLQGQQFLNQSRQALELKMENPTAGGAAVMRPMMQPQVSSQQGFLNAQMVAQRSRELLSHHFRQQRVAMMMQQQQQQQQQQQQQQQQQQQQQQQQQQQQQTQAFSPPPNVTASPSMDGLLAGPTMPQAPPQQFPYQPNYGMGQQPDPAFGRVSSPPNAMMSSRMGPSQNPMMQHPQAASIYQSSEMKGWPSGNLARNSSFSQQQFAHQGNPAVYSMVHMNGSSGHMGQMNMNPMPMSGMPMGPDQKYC
T3 sequence (P41143 whole entry): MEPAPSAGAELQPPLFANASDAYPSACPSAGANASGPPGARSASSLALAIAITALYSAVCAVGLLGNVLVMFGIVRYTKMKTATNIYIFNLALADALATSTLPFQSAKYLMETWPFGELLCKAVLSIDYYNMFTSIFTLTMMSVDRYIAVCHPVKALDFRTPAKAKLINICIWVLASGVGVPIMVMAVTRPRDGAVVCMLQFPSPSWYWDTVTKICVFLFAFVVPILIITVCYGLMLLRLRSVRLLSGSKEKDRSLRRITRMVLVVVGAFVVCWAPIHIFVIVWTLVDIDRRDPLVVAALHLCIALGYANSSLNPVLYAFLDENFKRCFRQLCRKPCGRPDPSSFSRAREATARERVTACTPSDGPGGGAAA

Cc1ccc(C)n1-c1ccc(-c2nnc3n2CCCCC3)s1
IC50 [1]: 86.7 µM (active)
EC50 [2]: > 79.4 µM (inactive)
EC50 [3]: > 79.4 µM (not active)
EC50 [4]: 38.7 µM (not active)

CCn1c(SCC(=O)c2ccc(OC)cc2)nnc1-c1ccccc1
IC50 [5]: > 100 µM (inactive)
IC50 [6]: > 100 µM (inactive)

COc1ccc(F)cc1S(=O)(=O)Nc1ccc2ccccc2c1
IC50 [5]: > 100 µM (inactive)
IC50 [6]: > 100 µM (inactive)

CCCc1nc2oc3c(Cl)ncnc3c2c2c1CCCC2
EC50 [7]: > 150 µM (not active)
EC50 [8]: > 32 µM (inactive)
EC50 [9]: > 32 µM (inactive)
IC50 [10]: 4.64 µM (active)
IC50 [11]: > 32 µM (inactive)
EC50 [12]: > 150 µM (not active)
IC50 [13]: > 32 µM
EC50 [14]: > 150 µM (not active)
EC50 [15]: > 31.5 µM (inactive)

COc1ccccc1-c1nc(SCC(=O)c2ccc(O)c(O)c2)n[nH]1
IC50 [5]: 14.8 µM (active)
IC50 [6]: 3.34 µM (active)

CCC(c1nnnn1CCOC)N(Cc1ccc(C)cc1)Cc1cc2cc(OC)ccc2[nH]c1=O (centres undefined)
EC50 [16]: > 100 µM (inactive)

Cn1cc[n+](C)c1P(=S)(c1ccccc1)c1ccccc1
EC50 [17]: 0.237 µM (active)

Cc1cc(-c2ccc(Br)s2)nc(-n2cccc2)n1
EC50 [2]: > 79.4 µM (inactive)
EC50 [3]: > 79.4 µM (not active)
EC50 [4]: 19.3 µM (not active)
